Source: US9951010B2, “Compounds as CRTH2 antagonist and uses thereof” (SUNSHINE LAKE PHARMA CO., LTD., priority 2014, dated 2018)

Experiments:
[1] = Detection of PK in rats; assay type: in vivo; settings: rat, plasma
Method: (§1) The analysis was performed using a 4000 QTRAPP series LC/MS/MS mass spectrometer equipped with Agilent 1200 dual injection pumps, 1290 automatic sampler, column oven and ESI source, detecting by the negative ion MRM mode. Waters Xbridge C18 column was used in the analysis, and the mobile phase consisted of phase (A) (2 mM ammonium formate+0.1% aqueous ammonia solution) and phase (B) (2 mM ammonium formate+0.1% ammonia methanol solution), the flow rate was 0.4 mL/min, column temperature was 40° C., the amount of injection was 3 μL.
(§2) The male Beagle dogs or rats were administered with the compound of the invention by intravenous injection (0.4 mg/Kg) and gavage (1 mg/Kg) respectively, the blood samples were collected at the time point of 0.083, 0.25, 0.5, 1, 2, 4, 6, 8, 10, 24 and 36 h and then centrifuged to obtain plasma samples. The compound concentrations in plasma samples at various times were detected by LC/MS/MS (the method described in biologic example 3), the main pharmacokinetic parameters were calculated, and pharmacokinetic properties of the compounds of the invention in Beagle dogs or rats were evaluated.

[2] = tested on: OVA (ovalbumin)-induced asthmatic model in rats; test: OVA (ovalbumin)-induced asthmatic model in rats, count of white blood cells in lung lavage; assay type: in vivo; settings: OVA-sensitized rats, gavage once a day for three days, lung lavage solution
Method: The experiment purpose was to assess the drug efficacy of the test compound in OVA (ovalbumin)-induced asthmatic model in rats.
Grouping the animal randomly to control group, model group and administered group. At the first, second and third day, the control group was administered with 1 mL of PBS (phosphate buffer solution) by intraperitoneal injection, and the model group and administered group were administered with a sensitization solution (prepared by mixing 6 mL of 1% OVA in phosphate buffer solution and 54 mL of alum solution at a ratio of 1:9) by intraperitoneal injection per day (1 mL per rat).
From the nineteenth day, the administered group was administered with the test compound at a certain dose by gavage, and the control group and model group was administered with the menstruum at a corresponding dose by gavage, once a day for three days. After 1 hour of administering each day, attacking the model group and administered group with 1% OVA in phosphate buffer solution and the control group with phosphate buffer solution for 20 min.
At the twenty-third day, the animals were anesthetized with 1% pentobarbital sodium (60 mg/Kg) by intraperitoneal injection. The blood samples were collected from aorta abdominalis under pentobarbital sodium anaesthesia into EDTA-K2 tubes. After tracheal intubation was performed, the lung of the animals were lavaged with 3 mL of PBS containing 1% FBS (Fetal Bovine Serum) once, and then lavaged with 5 mL of PBS containing 1% FBS at least two times; the volume of the combined lavage solutions were adjusted to 15 mL. The total cells in the lavage solution were counted by using a hemacytometer and a Trypan blue staining method and then white blood cells in the lavage solution were counted differentially.

[3] = molecular target: T1, CRTH2 receptor (Homo sapiens, UniProt Q9Y5Y4); test: FLIPR detection of inhibitory activity against CRTH2 (CHO-K1/G cells, PGD2 as agonist); assay type: cell-based; settings: CHO-K1/G cells with stable expression of CRTH2 receptor, PGD2 at EC80, FLIPR
T1 construct: expressed in transfected cells; host or cells: CHO-K1/G cells
T1 sequence (Q9Y5Y4 1-395): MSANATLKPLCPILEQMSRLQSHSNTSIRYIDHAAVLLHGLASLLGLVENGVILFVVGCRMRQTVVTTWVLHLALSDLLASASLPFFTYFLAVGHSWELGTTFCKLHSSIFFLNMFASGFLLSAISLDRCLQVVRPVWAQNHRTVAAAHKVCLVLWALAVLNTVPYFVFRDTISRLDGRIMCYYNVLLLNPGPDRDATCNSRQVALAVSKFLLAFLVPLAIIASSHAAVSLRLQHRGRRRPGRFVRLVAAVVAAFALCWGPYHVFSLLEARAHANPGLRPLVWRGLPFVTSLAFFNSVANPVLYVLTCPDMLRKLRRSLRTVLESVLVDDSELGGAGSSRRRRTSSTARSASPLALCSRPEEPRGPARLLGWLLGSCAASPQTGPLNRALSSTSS
Method: The test compound was weighed accurately and then dissolved in a suitable amount of DMSO to prepare a stock solution at a concentration of 10 mM; after clear and transparent, the stock solution was subpackaged and cryostoraged at −20° C. for use. Before testing, the test compound was diluted with balanced salt solution (HBSS buffer, containing 4-(2-hydroxyethyl)piperazine-1-ethanesulfonicacid) at a concentration of 20 mM) to 5 times testing concentration.
CHO-K1/G cells with stable expression of CRTH2 receptor were prepared to 5 times testing concentration and seeded into 384-microwell plate, and incubated in an incubator at 37° C./5% CO2. After incubating for 18 hours, to the cells in 384-microwell plate was added 20 μL of dye followed by the addition of 10 μL of prepared test compound solution. And then the cell plate was incubated in the incubator at 37° C./5% CO2 for 1 hour, at last which was balanced at rt for 15 min. After adding 12.5 μL of positive agonist (PGD2) at a concentration of 5 times EC80 to each well of the cell plate, the RFU (fluorescence intensity) value of the test compound was detected.
The data were recorded from ScreenWorks (version 3.1), and collected and analyzed by using Excel and GraphPad Prism 6 software to calculate the values of IC50.

[4] = tested on: eosinophilia in airway of Wistar rats induced by DK-PGD2; test: Eosinophilia in airway of Wistar rats induced by DK-PGD2, cell count in BALF; assay type: in vivo; design: The total number of white blood cells: unit not given here; settings: for inhibitory effects on the total number of white blood cells and the number of eosinophilic granulocytes: Wistar rats induced by DK-PGD2, compared with OC000459; for Eosinophilic granulocyte C (10^5/ml) / Eosinophilic granulocyte Inhibition rate / The total number of white blood cells: Wistar rats, 10 mg/Kg preventive dose 0.5 h before DK-PGD2, BALF after 24 h
Method: Purpose: evaluation of inhibitory effects of the compounds on the total number of white blood cells and eosinophilia in airway of Wistar rats induced by DK-PGD2.
Process: observation on the drug therapeutic effect through preventive medication. Specific operation: After 0.5 h of administering a preventive dose, the administered group and model group were induced eosinophilia with 100 μL of DK-PGD2 by spray injection through airway of rats, the blank group was spray injected with a corresponding dose of normal saline; after 24 h of molding, the rats were killed by bloodletting from aorta abdominalis, exposing the airway and the chest, performing the trachea cannula, and the bronchial pulmonary alveoli were lavaged with 8 mL of 1% BSA in PBS in twice, the bronchoalveolar lavage fluids (BALF) were collected and placed in an ice-bath; after smear, the cells were differential counted. The concentration of DK-PGD2 mother liquor was 10 mg/mL, which was diluted 5 folds to get 2 mg/mL.

[5] = Hygroscopicity test by dynamic vapor sorption; assay type: physicochemical; settings: DVS, 25° C.
Method: The hygroscopicity disclosed herein is detected on a DVS INT-Std dynamic vapor and gas absorption analyzer (England Surface Measurement Systems Company) under the humidity ranged from 0% to 95%, the airflow rate is 200 mL/min, the temperature is 25° C., and one test point is provided per rising 5% humidity.
An appropriate amount of test sample was sampled, and the hygroscopicity of the test sample was detected on a dynamic vapor sorption instrument. The experiment results are as shown in table 7; the dynamic vapor sorption profiles of the crystalline form I of the compound represented by Formula (VI) is substantial the same as shown in FIG. 19.
The hygroscopic features and definition of hygroscopic weight gain are summarized in table 8 (deriving from Chinese Pharmacopoeia 2010, appendix XIX J: Guideline on pharmaceutical hygroscopicity test, test conditions: 25° C.±1° C., Relative Humidity 80%).

[6] = Detection of PK in Beagle dogs; assay type: in vivo; settings: male, dog, plasma
Method: as §1, §2

[7] = Metabolic stability in rat liver microsomal; assay type: in vitro ADME; settings: liver microsomes, pH 7.4, 37° C.
Method: as §1
(§3) A mixture of the compound and human liver microsomal, a mixture of the compound and dog liver microsomal, or a mixture of the compound and rat liver microsomal were separately incubated at 37° C., under a condition of pH7.4. The sample concentrations at various incubative times were detected by LC/MS/MS (the method described in biologic example 3), speed constant was obtained by plotting “Log [drug concentration]” to “incubative time” in GraphPad Prism 5.01, and the drug half-life and intrinsic clearance rate were calculated; metabolic stability of the compound in liver microsomal were evaluated based on the drug half-life and intrinsic clearance rate.

[8] = Metabolic stability in human liver microsomal; assay type: in vitro ADME; settings: liver microsomes, pH 7.4, 37° C.
Method: as §1, §3

[9] = Metabolic stability in dog liver microsomal; assay type: in vitro ADME; settings: liver microsomes, pH 7.4, 37° C.
Method: as §1, §3

[10] = pH7.4, intrinsic clearance, read-out: Clearance rate
[11] = pH7.4, read-out: Drug half-life

Compound | AUC(0-inf) ([1]; iv, 0.4 mg/Kg) [ng·h/mL] | AUC(0-t) ([1]; iv, 0.4 mg/Kg) [ng·h/mL] | Cmax ([1]; iv, 0.4 mg/Kg) [ng/mL] | half-life ([1]; iv, 0.4 mg/Kg) [min] | AUC(0-inf) ([1]; po, p.o. (gavage), 1 mg/Kg) [ng·h/mL] | AUC(0-t) ([1]; po, p.o. (gavage), 1 mg/Kg) [ng·h/mL] | Cmax ([1]; po, p.o. (gavage), 1 mg/Kg) [ng/mL] | half-life ([1]; po, p.o. (gavage), 1 mg/Kg) [min] | Eosinophilic granulocyte Inhibition ratio [2] [%] | Eosinophilic granulocyte Number (×10^5/mL) [2] | Total number of white cells (×10^5/mL) [2] | IC50 [3] [nM] | inhibitory effects on the total number of white blood cells and the number of eosinophilic granulocytes [4] | Eosinophilic granulocyte C (10^5/ml) [4] | Eosinophilic granulocyte Inhibition rate [4] [%] | The total number of white blood cells [4] | also measured
Cc1c(C2CCC(NC(=O)c3ccc4ccccc4n3)CC2)c2cc(F)ccc2n1CC(=O)O.Cl (single isomer, unassigned) [Example 6a, 2-(5-fluoro-2-methyl-3-(4-(quinoline-2-carboxamido)cyclohexyl)-1H-indol-1-yl)acetic acid hydrochloride] | 2780 | 2680 | 2020 | 94.2 | 5940 | 5670 | 2110 | 172 | 33 | 153.75 ×10^5/mL | 247.350 ×10^5/mL | 200 | stronger than those of OC000459 | 0.0568 ± 0.02^## 10^5/ml | 86.85 | 1.634 ± 0.30 | –
Cc1c(C2CCC(NS(=O)(=O)c3ccc(F)cc3)CC2)c2cc(F)ccc2n1CC(=O)O (single isomer, unassigned) [Example 27b, 2-(5-fluoro-3-(4-(4-fluorophenylsulfonamido)cyclohexyl)-2-methyl-1H-indol-1-yl)acetic acid] | 920 | 883 | 802 | 94.8 | 1640 | 1600 | 631 | 79.8 | 38.55 | 142.17 ×10^5/mL | 277.800 ×10^5/mL | 57.3 | stronger than those of OC000459 | 0.09597 ± 0.04^## 10^5/ml | 76.76 | 1.986 ± 0.28 | –
Cc1c(C2CCN(S(=O)(=O)c3ccc(F)cc3)CC2)c2cc(F)ccc2n1CC(=O)O [Crystalline form I, 2-(5-fluoro-3-(1-((4-fluorophenyl)sulfonyl)piperidin-4-yl)-2-methyl-1H-indol-1-yl)acetic acid] | – | – | – | – | – | – | – | – | – | – | – | – | – | – | – | – | Weigh increase rate % under RH 80% ([5]; RH 80%): 0.293%; Weigh increase rate % under RH 95% ([5]; RH 95%): 0.499%
Cc1c(C2CCN(S(=O)(=O)c3ccc(F)cc3)CC2)c2cc(F)ccc2n1CC(=O)O [Example 24, 2-(5-fluoro-3-(1-((4-fluorophenyl)sulfonyl)piperidin-4-yl)-2-methyl-1H-indol-1-yl)acetic acid] | 1030 | 991 | 757 | 204 | 1890 | 1710 | 393 | 262 | 36.8 | 145.82 ×10^5/mL | 272.775 ×10^5/mL | 148 | stronger than those of OC000459 | 0.0804 ± 0.02^## 10^5/ml | 80.77 | 1.881 ± 0.26 | AUC(0-inf) ([6]; iv, 0.4 mg/Kg): 5500 ng·h/mL; AUC(0-t) ([6]; iv, 0.4 mg/Kg): 5400 ng·h/mL; Cmax ([6]; iv, 0.4 mg/Kg): 3210 ng/mL; half-life ([6]; iv, 0.4 mg/Kg): 283 min; AUC(0-inf) ([6]; po, p.o. (gavage), 1 mg/Kg): 6920 ng·h/mL; AUC(0-t) ([6]; po, p.o. (gavage), 1 mg/Kg): 6600 ng·h/mL; Cmax ([6]; po, p.o. (gavage), 1 mg/Kg): 1160 ng/mL; half-life ([6]; po, p.o. (gavage), 1 mg/Kg): 648 min; CLint scaled [7, 10]: 13.8 mL/min/kg; half-life [7, 11]: 180 min; CLint scaled [8, 10]: 2.55 mL/min/kg; half-life [8, 11]: 682 min; CLint scaled [9, 10]: 1.37 mL/min/kg; half-life [9, 11]: 2520 min
Cc1c(C2CCN(S(=O)(=O)c3ccc(F)cc3F)CC2)c2cc(F)ccc2n1CC(=O)O [Example 33, 2-(5-fluoro-3-(1-((2,4-difluorophenyl)sulfonyl)piperidin-4-yl)-2-methyl-1H-indol-1-yl)acetic acid] | 2500 | 2440 | 1300 | 270 | 4270 | 4090 | 1960 | 271 | – | – | – | 80.4 | – | – | – | – | –
Cc1c(C2CCN(S(=O)(=O)c3ccc(Cl)cc3)CC2)c2cc(F)ccc2n1CC(=O)O [Example 47, 2-(3-(1-((4-chlorophenyl)sulfonyl)piperidin-4-yl)-5-fluoro-2-methyl-1H-indol-1-yl)acetic acid] | – | – | – | – | – | – | – | – | – | – | – | 139 | – | – | – | – | –
Cc1c(Cc2ccc3ccccc3n2)c2cc(F)ccc2n1CC(=O)O [OC000459, reference compound] | – | – | – | – | – | – | – | – | – | – | – | – | – | 0.1192 ± 0.03^## 10^5/ml | 70.77 | 2.427 ± 0.25 | –
